smiles,measurement,setting,value
COc1ccc(C(=O)O)c(OC)c1,solubility (mole fraction),"in ethanol, 288.15 K",0.0116
same,solubility (mole fraction),"in ethanol, 293.15 K",0.0149
same,solubility (mole fraction),"in ethanol, 298.15 K",0.0191
same,solubility (mole fraction),"in ethanol, 303.15 K",0.0244
same,solubility (mole fraction),"in ethanol, 308.15 K",0.0312
same,solubility (mole fraction),"in ethanol, 313.15 K",0.0398
same,solubility (mole fraction),"in ethanol, 318.15 K",0.0507
same,solubility (mole fraction),"in ethanol, 323.15 K",0.0644
same,solubility (mole fraction),"in ethyl acetate, 288.15 K",0.0165
same,solubility (mole fraction),"in ethyl acetate, 293.15 K",0.0205
same,solubility (mole fraction),"in ethyl acetate, 298.15 K",0.0253
same,solubility (mole fraction),"in ethyl acetate, 303.15 K",0.0312
same,solubility (mole fraction),"in ethyl acetate, 308.15 K",0.0382
same,solubility (mole fraction),"in ethyl acetate, 313.15 K",0.0467
same,solubility (mole fraction),"in ethyl acetate, 318.15 K",0.0567
same,solubility (mole fraction),"in ethyl acetate, 323.15 K",0.0687
same,solubility (mole fraction),"in isobutanol, 288.15 K",0.0059
same,solubility (mole fraction),"in isobutanol, 293.15 K",0.0079
same,solubility (mole fraction),"in isobutanol, 298.15 K",0.0105
same,solubility (mole fraction),"in isobutanol, 303.15 K",0.0139
same,solubility (mole fraction),"in isobutanol, 308.15 K",0.0183
same,solubility (mole fraction),"in isobutanol, 313.15 K",0.0239
same,solubility (mole fraction),"in isobutanol, 318.15 K",0.0311
same,solubility (mole fraction),"in isobutanol, 323.15 K",0.0401
same,solubility (mole fraction),"in isopropanol, 288.15 K",0.0059
same,solubility (mole fraction),"in isopropanol, 293.15 K",0.0081
same,solubility (mole fraction),"in isopropanol, 298.15 K",0.0109
same,solubility (mole fraction),"in isopropanol, 303.15 K",0.0147
same,solubility (mole fraction),"in isopropanol, 308.15 K",0.0195
same,solubility (mole fraction),"in isopropanol, 313.15 K",0.0259
same,solubility (mole fraction),"in isopropanol, 318.15 K",0.034
same,solubility (mole fraction),"in isopropanol, 323.15 K",0.0445
same,solubility (mole fraction),"in n-butanol, 288.15 K",0.0086
same,solubility (mole fraction),"in n-butanol, 293.15 K",0.0112
same,solubility (mole fraction),"in n-butanol, 298.15 K",0.0146
same,solubility (mole fraction),"in n-butanol, 303.15 K",0.0188
same,solubility (mole fraction),"in n-butanol, 308.15 K",0.0242
same,solubility (mole fraction),"in n-butanol, 313.15 K",0.0309
same,solubility (mole fraction),"in n-butanol, 318.15 K",0.0393
same,solubility (mole fraction),"in n-butanol, 323.15 K",0.0498
same,solubility (mole fraction),"in n-propanol, 288.15 K",0.0087
same,solubility (mole fraction),"in n-propanol, 293.15 K",0.0114
same,solubility (mole fraction),"in n-propanol, 298.15 K",0.015
same,solubility (mole fraction),"in n-propanol, 303.15 K",0.0195
same,solubility (mole fraction),"in n-propanol, 308.15 K",0.0252
same,solubility (mole fraction),"in n-propanol, 313.15 K",0.0325
same,solubility (mole fraction),"in n-propanol, 318.15 K",0.0417
same,solubility (mole fraction),"in n-propanol, 323.15 K",0.0532

# — BigSolDB 2.1
